Like-named read-outs stand apart in the source and are kept apart here.
Experiments:
[1] = system: neutrophils; details: chronic lymphocytic leukemia, serum levels less than 10 nM, in most cases; cited from earlier work
[2] = system: malignant astrocytoma; assay: Phase I study, tumor response in malignant astrocytoma; assay type: in vivo, human
Description: (§1) A response to this treatment process can be determined according to the criteria proposed by Macdonald et al., J. Clin. Oncol., 8:1277-1280 (1990). A complete response requires the disappearance of all enhancing tumor on consecutive CAT or MRI scans at least one month apart, off steroids, and that the patient be neurologically stable or improved. A partial response is defined as a greater or equal to 50 percent decrease in size (largest cross-sectional area) of enhancing tumor on consecutive CAT or MRI scans at least one month apart, steroids stable or reduced, and that the patient be neurologically stable or improved. All other tumor responses were designated as no response.
(§2) The patients received continuous infusions of either 0.10, 0.15 or 0.20 mg/kg/day over seven day time periods in up to five monthly cycles. The patients with malignant astrocytomas received either 0.10 or 0.15 mg/kg/day; none receiving 0.20 mg/kg/day.
(§3) The finally diluted solution was infused through central venus access using an infusion pump device (Pharmacia Deltec Cadd) for out-patients, or infused by usual venus infusion for in-patients.
(§4) Each of the patients, except three (one renal cell carcinoma and two malignant melanoma) patients, had received a prior treatment. Each of the patients with malignant astrocytoma had been treated both surgically and with X-rays or by chemotherapy.

[3] = system: malignant melanoma; assay: Phase I study, tumor response in malignant melanoma; assay type: in vivo, human; details: twelve patients
Description: as §1, §2, §3, §4

[4] = system: Erythroid progenitor cells; details: cultured marrow and blood cells from normal patients; cited from earlier work
[5] = system: Colony forming unit-granulocyte macrophage (CFU-GM) cells; details: read-out: IC50 (concentration required to inhibit 50 percent of growth); CFU-GM cells from normal patients; cited from earlier work
[6] = system: granulocyte; assay: Clinical treatment of multiple sclerosis, granulocyte counts; assay type: in vivo, human; details: about 0.1 mg/kg/day, seven day courses of continuous infusion, after several courses
[7] = system: granulocyte; details: hairy cell leukemia, cited from earlier work
[8] = system: neutrophils; details: cutaneous T cell lymphoma, 0.1 mg/kg per day over 7 days; cited from earlier work
[9] = system: Mature BFU-E (mBFU-E) cells; details: read-out: IC50 (concentration required to inhibit 50 percent of growth); mBFU-E cells from normal patients; cited from earlier work
[10] = system: Primitive burst-forming unit-erythroid (pBFU-E) cells; details: read-out: IC50 (concentration required to inhibit 50 percent of growth); pBFU-E cells from normal patients; cited from earlier work
[11] = Phase I study, toxicity; assay type: in vivo, human
Procedure: as §2, §3

[12] = system: colony forming unit-erythroid (CFU-E) cells; details: read-out: IC50 (concentration required to inhibit 50 percent of growth); CFU-E cells from normal patients; cited from earlier work
[13] = system: renal cell carcinoma; assay: Phase I study, tumor response in renal cell carcinoma; assay type: in vivo, human; details: two patients
Description: as §1, §2, §3, §4

[14] = system: CFU-GM cells; details: 100 nM 2-CdA; cited from earlier work
[15] = system: CML in blast crisis; details: cited from earlier work

Nc1nc(Cl)nc2c1ncn2[C@H]1C[C@H](O)[C@@H](CO)O1 [2-CdA, 2-chloro-2'-deoxyadenosine]
neutrophil count [1]: increase in neutrophil count
duration of partial response ([2]; patient No. 1, grade 2 astrocytoma, four cycles at 0.10 mg/kg/day): seven
coronal MRI of brain after treatment ([2]; patient No. 1, intravenous contrast): resolution of tumor enhancement
axial spin echo MRI of brain after treatment ([2]; patient No. 12): complete regression of the edema and shrinkage of the cyst
cyst on sagittal T1-weighted imaging after treatment ([2]; patient No. 12): smaller in size and higher in signal intensity
sagittal T1-weighted imaging of brain after treatment ([2]; patient No. 12): complete regression of the temporal lobe swelling, with restoration of a normal sulcal pattern
duration of partial response ([2]; patient No. 12, GBM, five cycles at 0.15 mg/kg/day): nine
responding patients (partial response) ([2]; two of seven malignant astrocytoma patients, 0.1 or 0.15 mg/kg/day): 28.6%
median duration of partial response ([2]; two responding patients): eight
patients with partial response [3]: None
sensitivity of erythroid progenitor cells to 2-CdA [4]: dose-dependent sensitivity to 2-CdA, with that sensitivity decreasing as the stage of progenitor maturation increased
IC50 [5]: 16 nM
granulocyte counts [6]: substantially unchanged
granulocyte counts ([7]; transient neutropenia): under 500 per microliter
neutropenia ([7]; particularly acute in patients already neutropenic): transient neutropenia
resistance of neutrophils relative to monocytes and lymphocytes [8]: more resistant to 2-CdA than their monocytes and lymphocytes
IC50 [9]: 38 nM
IC50 [10]: 19 nM
myelosuppression per cycles ([11]; 0.10 mg/kg/day): 1/18
myelosuppression per cycles ([11]; 0.15 mg/kg/day): 5/22
myelosuppression per cycles ([11]; 0.20 mg/kg/day): 3/4
myelosuppression, dose dependence ([11]; 0.10, 0.15, 0.20 mg/kg/day): increased with dosage
principal toxic effect ([11]; all patients): Myelosuppression
alopecia, nausea, vomiting, cardiopulmonary, renal or hepatic toxicity ([11]; any patient of the study): No alopecia, nausea, vomiting, cardiopulmonary, renal or hepatic toxicity occurred
myelosuppression in patients with previous biologic therapy ([11]; in vivo): all of the patients with previous biologic therapy treatment developed myelosuppression
patients with prior chemotherapy among those who developed myelosuppression ([11]; in vivo): five of eight
patients with prior chemotherapy among those without myelosuppression ([11]; in vivo): two of thirteen
patients with prior biologic therapies among those exhibiting myelosuppression ([11]; interferon, interleukin-2, or lymphocyte-activated killer cells): Four of the eight
patients exhibiting myelosuppression ([11]; malignant astrocytoma (GBM), seven patients): Two of the seven
patients exhibiting delayed neurotoxicities ([11]; malignant melanoma with prior therapy, unknown whether directly from 2-CdA): Two
type of myelosuppression ([11]; one astrocytoma patient with prior surgical and X-ray treatments, after the fifth cycle): both neutropenia and thrombocytopenia
myelosuppression (grades 3 or 4 neutropenia or thrombocytopenia), frequency by pretreatment ([11]; prior exposure to systemic chemotherapy): more frequent in patients having had prior exposure to systemic chemotherapy
IC50 [12]: 56 nM
patients with partial response [13]: None
reduction of growth of CFU-GM cells [14]: 60%
detectable tumor ([15]; another of two patients): loss of detectable tumor
blast count ([15]; one of two patients): decrease in blast count
